Results: patent publication US8435978B2, “Substituted sulfonamide compounds” (Gruenenthal GmbH, priority 2006, dated 2013)

Key:
[1] = target: T1, human B1R receptor (Homo sapiens, UniProt P46663); assay: Functional study on the bradykinin receptor 1 (B1R), FLIPR Ca2+ assay, hB1R cells; type: cell-based; conditions: CHO-K1, test substance 10 μM, agonist Lys-Des-Arg9-bradykinin 0.5 nM, % inhibition compared with the maximum achievable inhibition, read-out: B1R Antagonism, human [10 μM] % Inhibition
T1 construct: host or cells: CHO K1 cells (Chinese hamster ovary), stably transfected
T1 sequence (P46663 1-353): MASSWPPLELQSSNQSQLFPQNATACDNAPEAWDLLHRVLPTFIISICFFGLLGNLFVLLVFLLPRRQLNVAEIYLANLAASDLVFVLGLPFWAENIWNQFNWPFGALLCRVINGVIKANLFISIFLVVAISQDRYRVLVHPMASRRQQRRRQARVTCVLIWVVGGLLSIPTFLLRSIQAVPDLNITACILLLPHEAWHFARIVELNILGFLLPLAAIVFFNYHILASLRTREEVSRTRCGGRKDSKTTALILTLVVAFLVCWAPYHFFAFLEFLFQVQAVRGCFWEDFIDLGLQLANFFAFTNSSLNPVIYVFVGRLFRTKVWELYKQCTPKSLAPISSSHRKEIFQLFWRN
Outline: (§1)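 FLIPR Ca2+ read-out (Fluo-4, peak fluorescence) in stably transfected CHO K1 cells. Compounds at 10 μM, then 10 min later agonist challenge: human B1R with Lys-Des-Arg9-bradykinin 0.5 nM, rat B1R with Des-Arg9-bradykinin 100 nM; reported as % activation or % of maximal inhibition.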

[2] = target: T2, B1R receptor of the rat (Rattus norvegicus, UniProt P97583); assay: Functional study on the bradykinin receptor 1 (B1R), FLIPR Ca2+ assay, rB1R cells; type: cell-based; conditions: CHO-K1, test substance 10 μM, agonist Des-Arg9-bradykinin 100 nM, % inhibition compared with the maximum achievable inhibition, read-out: B1R Antagonism, rat [10 μM] % Inhibition
T2 construct: host or cells: CHO K1 cells (Chinese hamster ovary), stably transfected
T2 sequence (P97583 1-337): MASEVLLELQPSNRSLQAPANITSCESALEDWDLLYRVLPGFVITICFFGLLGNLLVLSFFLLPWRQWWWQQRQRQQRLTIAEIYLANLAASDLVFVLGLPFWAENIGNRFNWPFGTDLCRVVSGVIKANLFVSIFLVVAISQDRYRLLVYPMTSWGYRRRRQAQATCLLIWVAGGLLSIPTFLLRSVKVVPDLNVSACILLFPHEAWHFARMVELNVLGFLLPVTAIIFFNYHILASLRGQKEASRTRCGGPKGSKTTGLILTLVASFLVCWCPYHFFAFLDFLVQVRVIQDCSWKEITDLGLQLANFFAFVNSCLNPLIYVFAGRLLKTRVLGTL
Outline: as §1

| Compound | inhibition at 10 µM [1] [%] | inhibition at 10 µM [2] [%] |
| --- | --- | --- |
| O=C(COCC1CCCCN1S(=O)(=O)c1c(Cl)cccc1Cl)N1CCN(c2ccccc2F)CC1 (stereo not drawn) [Example 442, 2-((1-(2,6-dichlorophenylsulfonyl)piperidin-2-yl)methoxy)-1-(4-(2-fluorophenyl)piperazin-1-yl)ethanone] | 102 | 98.6 |
| O=C(COCC1CCCCN1S(=O)(=O)c1c(Cl)cccc1Cl)N1CCC(N2CCCC2)CC1 (stereo not drawn) [Example 443, 2-((1-(2,6-dichlorophenylsulfonyl)piperidin-2-yl)methoxy)-1-(4-(pyrrolidin-1-yl)piperidin-1-yl)ethanone] | 104 | 99.3 |
| COc1cc(C)c(S(=O)(=O)N2CCCC2COCC(=O)N2CCN(Cc3ccccc3F)CC2)c(C)c1 (stereo not drawn) [Example 444, 1-(4-(2-fluorobenzyl)piperazin-1-yl)-2-((1-(4-methoxy-2,6-dimethylphenylsulfonyl)pyrrolidin-2-yl)methoxy)ethanone] | 92.8 | 98.6 |
| COc1cc(C)c(S(=O)(=O)N2CCCC2COCC(=O)N2CCN(C)CC2c2ccccc2)c(C)c1 (stereo not drawn) [Example 445, 2-((1-(4-methoxy-2,6-dimethylphenylsulfonyl)pyrrolidin-2-yl)methoxy)-1-(4-methyl-2-phenylpiperazin-1-yl)ethanone] | 102 | 98.6 |
| COc1cc(C)c(S(=O)(=O)N2CCCC2COCC(=O)N(C)C(CN2CCN(C)CC2)c2ccccc2)c(C)c1 (stereo not drawn) [Example 446, 2-((1-(4-methoxy-2,6-dimethylphenylsulfonyl)pyrrolidin-2-yl)methoxy)-N-methyl-N-(2-(4-methylpiperazin-1-yl)-1-phenylethyl)acetamide] | 95 | 99.8 |
| COc1cc(C)c(S(=O)(=O)N2CCCC2COCC(=O)N2CCCC2Cc2ccccn2)c(C)c1 (stereo not drawn) [Example 447, 2-((1-(4-methoxy-2,6-dimethylphenylsulfonyl)pyrrolidin-2-yl)methoxy)-1-(2-(pyridin-2-ylmethyl)pyrrolidin-1-yl)ethanone] | 66.5 | 94.2 |
| COc1cc(C)c(S(=O)(=O)N2CCCC2COCC(=O)N2CCCC2Cc2cccc(C)n2)c(C)c1 (stereo not drawn) [Example 448, 2-((1-(4-methoxy-2,6-dimethylphenylsulfonyl)pyrrolidin-2-yl)methoxy)-1-(2-((6-methylpyridin-2-yl)methyl)pyrrolidin-1-yl)ethanone] | 85.8 | 99.8 |
| COc1cc(C)c(S(=O)(=O)N2CCCC2COCC(=O)N2CCCCC2Cc2ccccn2)c(C)c1 (stereo not drawn) [Example 449, 2-((1-(4-methoxy-2,6-dimethylphenylsulfonyl)pyrrolidin-2-yl)methoxy)-1-(2-(pyridin-2-ylmethyl)piperidin-1-yl)ethanone] | 90.8 | 99.7 |
| COc1cc(C)c(S(=O)(=O)N2CCCC2COCC(=O)N(C)C(CN2CCCC2)c2ccccc2)c(C)c1 (stereo not drawn) [Example 450, 2-((1-(4-methoxy-2,6-dimethylphenylsulfonyl)pyrrolidin-2-yl)methoxy)-N-methyl-N-(1-phenyl-2-(pyrrolidin-1-yl)ethyl)acetamide] | 87.4 | 99.7 |
| COc1ccc(CN2CCN(C(=O)COCC3CCCN3S(=O)(=O)c3c(Cl)cccc3Cl)CC2)cc1 (stereo not drawn) [Example 451, 2-((1-(2,6-dichlorophenylsulfonyl)pyrrolidin-2-yl)methoxy)-1-(4-(4-methoxybenzyl)piperazin-1-yl)ethanone] | 80.7 | 99.2 |
| CN(C)CCN1CCN(C(=O)COCC2CCCN2S(=O)(=O)c2c(Cl)cccc2Cl)CC1 (stereo not drawn) [Example 452, 2-((1-(2,6-dichlorophenylsulfonyl)pyrrolidin-2-yl)methoxy)-1-(4-(2-(dimethylamino)ethyl)piperazin-1-yl)ethanone] | 105 | 95.2 |
| O=C(COCC1CCCN1S(=O)(=O)c1c(Cl)cccc1Cl)N1CCCCC1Cc1ccncc1 (stereo not drawn) [Example 453, 2-((1-(2,6-dichlorophenylsulfonyl)pyrrolidin-2-yl)methoxy)-1-(2-(pyridin-4-ylmethyl)piperidin-1-yl)ethanone] | 40.5 | 74.4 |
| O=C(COCC1CCCCN1S(=O)(=O)c1c(Cl)cccc1Cl)N1CCN(Cc2ccccc2F)CC1 (stereo not drawn) [Example 454, 2-((1-(2,6-dichlorophenylsulfonyl)piperidin-2-yl)methoxy)-1-(4-(2-fluorobenzyl)piperazin-1-yl)ethanone] | 102 | 100 |
| CN1CCN(C(=O)COCC2CCCCN2S(=O)(=O)c2c(Cl)cccc2Cl)C(c2ccccc2)C1 (stereo not drawn) [Example 455, 2-((1-(2,6-dichlorophenylsulfonyl)piperidin-2-yl)methoxy)-1-(4-methyl-2-phenylpiperazin-1-yl)ethanone] | 103 | 99.3 |
| O=C(COCC1CCCCN1S(=O)(=O)c1c(Cl)cccc1Cl)N1CCCC1Cc1ccccn1 (stereo not drawn) [Example 456, 2-((1-(2,6-dichlorophenylsulfonyl)piperidin-2-yl)methoxy)-1-(2-(pyridin-2-ylmethyl)pyrrolidin-1-yl)ethanone] | 100 | 101 |
| Cc1cc(C)nc(CC2CCCN2C(=O)COCC2CCCCN2S(=O)(=O)c2c(Cl)cccc2Cl)c1 (stereo not drawn) [Example 457, 2-((1-(2,6-dichlorophenylsulfonyl)piperidin-2-yl)methoxy)-1-(2-((4,6-dimethylpyridin-2-yl)methyl)pyrrolidin-1-yl)ethanone] | 102 | 99.7 |
| Cc1cccc(CC2CCCN2C(=O)COCC2CCCCN2S(=O)(=O)c2c(Cl)cccc2Cl)n1 (stereo not drawn) [Example 458, 2-((1-(2,6-dichlorophenylsulfonyl)piperidin-2-yl)methoxy)-1-(2-((6-methylpyridin-2-yl)methyl)pyrrolidin-1-yl)ethanone] | 103 | 100 |
| O=C(COCC1CCCCN1S(=O)(=O)c1c(Cl)cc(Cl)cc1Cl)NCCN1CCCC1 (stereo not drawn) [Example 459, N-(2-(pyrrolidin-1-yl)ethyl)-2-((1-(2,4,6-trichlorophenylsulfonyl)piperidin-2-yl)methoxy)acetamide] | 57.1 | 102 |
| COc1cc(C)c(S(=O)(=O)N2CCCC2COCC(=O)N2CCN(Cc3ccccc3)CC2)c(C)c1 (stereo not drawn) [Example 460, 1-(4-benzylpiperazin-1-yl)-2-((1-(4-methoxy-2,6-dimethylphenylsulfonyl)pyrrolidin-2-yl)methoxy)ethanone] | 96.6 | 101 |
| COc1cc(C)c(S(=O)(=O)N2CCCC2COCC(=O)N2CCN(c3ccccc3)CC2)c(C)c1 (stereo not drawn) [Example 461, 2-((1-(4-methoxy-2,6-dimethylphenylsulfonyl)pyrrolidin-2-yl)methoxy)-1-(4-phenylpiperazin-1-yl)ethanone] | 101 | 99.1 |
| COc1cc(C)c(S(=O)(=O)N2CCCC2COCC(=O)N2CCN(Cc3ccc4c(c3)OCO4)CC2)c(C)c1 (stereo not drawn) [Example 462, 1-(4-(benzo[d][1,3]dioxol-5-ylmethyl)piperazin-1-yl)-2-((1-(4-methoxy-2,6-dimethylphenylsulfonyl)pyrrolidin-2-yl)methoxy)ethanone] | 101 | 98.2 |
